Data on 1 compound can be found in patent US20230364084A1, “METHODS FOR PREVENTING OR TREATING CONDITIONS RELATED TO PIKFYVE ACTIVITY” (The Regents of the University of Michigan, priority 2020, published 2023).

Each structure is given as a SMILES string.

The subject of assay [1] is Myc-CaP cells. Put plainly: long-term survival assay in Myc-CaP cells. It is filed as cell-based, mouse. The procedure: Single cell suspensions were seeded into 96-well plates at a density of 1,000-30,000 cells per well. Long-term survival was determined after 14 days of drug incubation. Viable cells were fixed with 4% formaldehyde and subsequently stained with 1% crystal violet. IC50 was calculated using GraphPad Prism.

Assay [2] deals with VCaP 3D spheroids. As to the kind of experiment: 3D spheroid culture. It is filed as cell-based, human. The conditions noted are these: VCaP 3D spheroid culture, compared with cabozantinib. The procedure:
Nuclear red fluorescent protein-expressing VCaP cells were seeded in ultralow attachment 96-well plates and spun down at 1000 rpm for 10 minutes to pellet cells. Spheroids were formed after 3 days of incubation in a cell culture incubator, and then treatment was started. Red fluorescence intensity was monitored by IncuCyte ZOOM.

For assay [3], the system named is invasive prostate cancer cell lines. As to the kind of experiment: Matrigel invasion assay. It is filed as cell-based, human. The conditions noted are these: four invasive prostate cancer cell lines, 24-hour incubation. The procedure: 2-5×10^5 cells were seeded onto 8-μm Matrigel-coated fluoroblok transwells with serum-free medium and various concentrations of ESK981. Medium containing 10% FBS in the lower chamber served as a chemoattractant. After 24-hour incubation, invaded cells were stained with […] at 37° C., and fluorescence intensity was quantified with a TECAN M1000 plate reader.

Assay [4] concerns Atg8. Put plainly: yeast autophagy detection (Atg8 immunoblot). It is filed as cell-based. The conditions noted are these: drug permeable yeast strain (prd5Δ), 3 μM, nitrogen deprivation. The procedure:
The yeast strains used in this study were YAB499 (SEY6210, pho13Δ pho8Δ60, pdr5Δ::Kan). Protein extraction and immunoblot were performed as previously described^59. Antisera to Atg8 and Pgk1 (a generous gift from Dr. Jeremy Thorner, University of California, Berkeley) were used as previously described. Cells were treated with either 3 μM ESK981, 3 μM cabozantinib, or the equivalent amount of DMSO as control for the indicated times.

Assay [5] concerns GFP-LC3 expressing DU145 cells. As to the kind of experiment: GFP-LC3 puncta confocal imaging. It is filed as cell-based, human. The procedure:
For GFP-LC3 confocal imaging, GFP-LC3 expressing DU145 cells were seeded on coverslips overnight and treated with ESK981 at 300 nM for various time points. Coverslips were then fixed with 10% paraformaldehyde. Confocal images were taken using a Nikon A1 confocal microscope.

In assay [6] the test system is lysosomes in VCaP, LNCaP, PC3 and DU145 cells. Put plainly: LysoTracker Green flow cytometry. The conditions noted are these: four prostate cancer cell lines, 24 hours, increasing concentrations. Format: cell-based, human. The procedure:
Cells were grown in 6-well plates and treated with various drugs. After 24 hours, cells were stained with LysoTracker® Green DND-26 (Invitrogen), and green fluorescence signal was analyzed by flow cytometry.
(In general: Flow cytometry measures light scatter and fluorescence of single cells or particles in a stream.)

Assay [7] concerns GFP-LC3-RFP-LC3ΔG-expressing Myc-CaP cells. Put plainly: autophagic flux detection in Myc-CaP cells. Format: cell-based, mouse. The conditions noted are these: 24 hours. The procedure: For autophagic flux detection, 10,000 cells were plated in 96-well plates and incubated with various compounds in complete medium for 24 hours. GFP and RFP fluorescence intensities were measured on a TECAN M1000 plate reader.

For assay [8], the target named is T1, PIK3CA (Homo sapiens, UniProt P42336).
T1 construct: purchased DiscoveRX (KdELECT)
As to the kind of experiment: kinase dissociation constant analysis (KdELECT). Format: binding. The following applies: 11-point dose-response, duplicate. The procedure:
(§1) Quantitative binding constants (Kd) of ESK981 to PIKfyve, PIP5K1A, PIP5K1C, and PIK3CA were generated using KdELECT® platform (DiscoveRX). An 11-point dose-response of ESK981 (0.05-3000 nM) was used, and the experiment was performed in duplicate. Detailed information is described on the DiscoveRX website (www.discoverx.com).

Assay [9] concerns the target T2, PIP5K1A (Homo sapiens, UniProt Q99755).
T2 construct: purchased DiscoveRX (KdELECT)
As to the kind of experiment: kinase dissociation constant analysis (KdELECT). It is filed as binding. The following applies: 11-point dose-response, duplicate. The procedure:
as §1

For assay [10], the target named is T3, PIP5K1C (Homo sapiens, UniProt O60331).
T3 construct: purchased DiscoveRX (KdELECT)
Put plainly: kinase dissociation constant analysis (KdELECT). The conditions noted are these: 11-point dose-response, duplicate. It is filed as binding. The procedure:
as §1

For assay [11], the target named is Tie-2 (TEK) (Homo sapiens, UniProt Q02763). The conditions noted are these: cited from earlier work.
The target in assay [12] is PIKfyve (Homo sapiens, UniProt Q9Y2I7). As to the kind of experiment: cellular thermal shift assay. It is filed as cell-based. The arrangement: endogenous in cells; host or cells: VCaP cells. The following applies: VCaP cells, 1 μM, 2 hours. The procedure:
The ability of compounds to interact with, and thereby stabilize the target in intact cells, was analyzed essentially as previously described^60,61. The target engagement of ESK981 to PIKfyve was performed in VCaP cells. Cells were treated with DMSO, ESK981 (1 μM), or apilimod (1 μM) for 2 hours at 37° C. and 5% CO2, and 1×10^6 single cell suspensions were diluted into 50 μl of PBS containing protease inhibitor. Cell suspensions were then incubated in a PCR thermal cycler at various temperatures for 2 cycles of 3 minutes heating followed by 3 minutes cooling at room temperature. Cells were lysed by three cycles of freeze-thawing using liquid nitrogen. 20 μl of the soluble fraction of cell lysates were analyzed by western blot.

T1 sequence (P42336 whole entry): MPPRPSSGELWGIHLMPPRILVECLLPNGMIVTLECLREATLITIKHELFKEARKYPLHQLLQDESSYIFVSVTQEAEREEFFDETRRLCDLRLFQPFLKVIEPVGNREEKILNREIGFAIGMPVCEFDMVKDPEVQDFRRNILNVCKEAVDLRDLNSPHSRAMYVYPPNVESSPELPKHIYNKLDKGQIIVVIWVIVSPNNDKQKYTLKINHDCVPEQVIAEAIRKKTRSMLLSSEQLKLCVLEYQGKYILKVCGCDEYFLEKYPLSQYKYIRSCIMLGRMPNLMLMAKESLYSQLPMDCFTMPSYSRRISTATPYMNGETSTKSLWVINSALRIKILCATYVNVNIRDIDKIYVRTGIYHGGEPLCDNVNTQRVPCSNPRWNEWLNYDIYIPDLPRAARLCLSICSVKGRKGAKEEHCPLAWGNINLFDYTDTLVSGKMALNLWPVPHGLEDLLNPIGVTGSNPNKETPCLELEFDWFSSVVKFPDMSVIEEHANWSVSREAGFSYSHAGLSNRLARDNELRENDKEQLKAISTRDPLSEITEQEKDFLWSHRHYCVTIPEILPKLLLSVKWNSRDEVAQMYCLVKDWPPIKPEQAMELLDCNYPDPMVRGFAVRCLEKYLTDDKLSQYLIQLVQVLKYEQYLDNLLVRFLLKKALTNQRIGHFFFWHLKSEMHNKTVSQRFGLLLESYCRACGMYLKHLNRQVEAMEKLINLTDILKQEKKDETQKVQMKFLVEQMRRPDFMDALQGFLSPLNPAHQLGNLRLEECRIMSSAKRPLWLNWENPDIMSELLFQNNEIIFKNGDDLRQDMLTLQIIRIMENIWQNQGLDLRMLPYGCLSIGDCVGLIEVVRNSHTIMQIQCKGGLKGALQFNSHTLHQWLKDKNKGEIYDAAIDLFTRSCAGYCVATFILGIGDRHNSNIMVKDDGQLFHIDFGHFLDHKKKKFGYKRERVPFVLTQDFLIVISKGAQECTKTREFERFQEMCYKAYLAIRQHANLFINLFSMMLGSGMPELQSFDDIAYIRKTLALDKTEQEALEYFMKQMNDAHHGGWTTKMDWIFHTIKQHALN
T2 sequence (Q99755 whole entry): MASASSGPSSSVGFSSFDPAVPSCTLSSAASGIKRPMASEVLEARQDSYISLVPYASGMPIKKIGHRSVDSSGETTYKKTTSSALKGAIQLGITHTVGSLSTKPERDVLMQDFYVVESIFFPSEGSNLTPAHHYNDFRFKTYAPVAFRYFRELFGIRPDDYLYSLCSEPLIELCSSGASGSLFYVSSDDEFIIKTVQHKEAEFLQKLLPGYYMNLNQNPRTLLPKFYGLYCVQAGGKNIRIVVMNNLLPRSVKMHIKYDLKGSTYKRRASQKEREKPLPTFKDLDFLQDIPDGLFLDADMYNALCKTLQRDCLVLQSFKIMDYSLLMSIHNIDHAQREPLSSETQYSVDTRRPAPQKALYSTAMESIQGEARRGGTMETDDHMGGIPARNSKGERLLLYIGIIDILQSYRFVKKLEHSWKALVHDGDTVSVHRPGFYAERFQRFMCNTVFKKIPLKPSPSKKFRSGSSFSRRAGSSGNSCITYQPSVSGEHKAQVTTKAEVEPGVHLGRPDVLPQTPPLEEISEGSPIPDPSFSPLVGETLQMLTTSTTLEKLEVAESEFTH
PIKfyve, sequence (Q9Y2I7 whole entry): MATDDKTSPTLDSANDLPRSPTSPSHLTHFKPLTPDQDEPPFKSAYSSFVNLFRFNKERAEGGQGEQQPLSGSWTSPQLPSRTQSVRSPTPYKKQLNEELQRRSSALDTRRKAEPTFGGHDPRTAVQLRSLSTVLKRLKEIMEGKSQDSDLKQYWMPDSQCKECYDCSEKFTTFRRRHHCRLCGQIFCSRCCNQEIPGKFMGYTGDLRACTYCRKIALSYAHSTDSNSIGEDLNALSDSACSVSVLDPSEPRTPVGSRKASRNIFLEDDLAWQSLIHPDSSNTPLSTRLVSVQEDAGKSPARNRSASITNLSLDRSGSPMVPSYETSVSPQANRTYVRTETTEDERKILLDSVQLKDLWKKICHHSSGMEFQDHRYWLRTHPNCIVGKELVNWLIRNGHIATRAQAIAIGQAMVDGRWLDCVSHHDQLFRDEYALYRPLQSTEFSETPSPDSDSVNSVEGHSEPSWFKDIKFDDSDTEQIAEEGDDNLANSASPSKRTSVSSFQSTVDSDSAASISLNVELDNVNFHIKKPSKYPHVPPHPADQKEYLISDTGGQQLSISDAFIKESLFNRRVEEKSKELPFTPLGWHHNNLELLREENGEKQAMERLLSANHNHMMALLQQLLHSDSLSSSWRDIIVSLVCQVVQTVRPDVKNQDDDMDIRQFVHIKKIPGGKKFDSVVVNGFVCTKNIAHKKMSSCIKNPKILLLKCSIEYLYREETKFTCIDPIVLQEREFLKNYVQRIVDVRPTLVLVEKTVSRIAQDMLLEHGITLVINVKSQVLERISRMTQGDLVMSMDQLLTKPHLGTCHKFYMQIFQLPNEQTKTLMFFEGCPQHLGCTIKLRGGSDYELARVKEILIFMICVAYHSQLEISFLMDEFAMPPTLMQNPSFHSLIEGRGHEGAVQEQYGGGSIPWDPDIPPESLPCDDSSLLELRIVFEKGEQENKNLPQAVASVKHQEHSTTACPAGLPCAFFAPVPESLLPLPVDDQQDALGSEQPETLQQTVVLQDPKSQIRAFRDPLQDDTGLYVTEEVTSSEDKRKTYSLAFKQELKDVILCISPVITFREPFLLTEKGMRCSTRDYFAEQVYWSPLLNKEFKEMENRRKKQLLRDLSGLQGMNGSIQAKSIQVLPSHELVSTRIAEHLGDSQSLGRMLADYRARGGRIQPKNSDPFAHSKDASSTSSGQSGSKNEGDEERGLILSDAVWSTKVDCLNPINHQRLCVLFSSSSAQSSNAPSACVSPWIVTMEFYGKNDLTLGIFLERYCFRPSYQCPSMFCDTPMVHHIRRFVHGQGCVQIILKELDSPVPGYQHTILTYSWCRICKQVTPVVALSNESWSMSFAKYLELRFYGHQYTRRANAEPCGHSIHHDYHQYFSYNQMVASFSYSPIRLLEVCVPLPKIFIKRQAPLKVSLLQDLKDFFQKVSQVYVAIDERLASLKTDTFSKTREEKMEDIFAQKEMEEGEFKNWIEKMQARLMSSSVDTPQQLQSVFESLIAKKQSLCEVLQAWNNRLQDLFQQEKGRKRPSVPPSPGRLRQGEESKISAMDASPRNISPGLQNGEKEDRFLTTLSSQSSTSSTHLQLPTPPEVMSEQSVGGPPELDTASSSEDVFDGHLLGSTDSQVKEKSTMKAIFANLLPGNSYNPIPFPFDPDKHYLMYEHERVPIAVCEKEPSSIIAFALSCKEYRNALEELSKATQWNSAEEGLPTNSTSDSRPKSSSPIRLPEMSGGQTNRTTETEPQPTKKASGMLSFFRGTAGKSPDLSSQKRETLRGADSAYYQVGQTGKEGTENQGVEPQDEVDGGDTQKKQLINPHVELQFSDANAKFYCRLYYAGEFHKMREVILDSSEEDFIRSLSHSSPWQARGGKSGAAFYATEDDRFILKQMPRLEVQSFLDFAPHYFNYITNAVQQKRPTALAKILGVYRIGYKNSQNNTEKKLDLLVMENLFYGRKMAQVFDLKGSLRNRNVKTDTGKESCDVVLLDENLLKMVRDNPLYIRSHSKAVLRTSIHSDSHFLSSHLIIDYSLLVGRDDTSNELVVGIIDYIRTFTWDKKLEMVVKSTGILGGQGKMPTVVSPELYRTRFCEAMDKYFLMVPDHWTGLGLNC
Tie-2 (TEK), sequence (Q02763 23-1124, species assumed): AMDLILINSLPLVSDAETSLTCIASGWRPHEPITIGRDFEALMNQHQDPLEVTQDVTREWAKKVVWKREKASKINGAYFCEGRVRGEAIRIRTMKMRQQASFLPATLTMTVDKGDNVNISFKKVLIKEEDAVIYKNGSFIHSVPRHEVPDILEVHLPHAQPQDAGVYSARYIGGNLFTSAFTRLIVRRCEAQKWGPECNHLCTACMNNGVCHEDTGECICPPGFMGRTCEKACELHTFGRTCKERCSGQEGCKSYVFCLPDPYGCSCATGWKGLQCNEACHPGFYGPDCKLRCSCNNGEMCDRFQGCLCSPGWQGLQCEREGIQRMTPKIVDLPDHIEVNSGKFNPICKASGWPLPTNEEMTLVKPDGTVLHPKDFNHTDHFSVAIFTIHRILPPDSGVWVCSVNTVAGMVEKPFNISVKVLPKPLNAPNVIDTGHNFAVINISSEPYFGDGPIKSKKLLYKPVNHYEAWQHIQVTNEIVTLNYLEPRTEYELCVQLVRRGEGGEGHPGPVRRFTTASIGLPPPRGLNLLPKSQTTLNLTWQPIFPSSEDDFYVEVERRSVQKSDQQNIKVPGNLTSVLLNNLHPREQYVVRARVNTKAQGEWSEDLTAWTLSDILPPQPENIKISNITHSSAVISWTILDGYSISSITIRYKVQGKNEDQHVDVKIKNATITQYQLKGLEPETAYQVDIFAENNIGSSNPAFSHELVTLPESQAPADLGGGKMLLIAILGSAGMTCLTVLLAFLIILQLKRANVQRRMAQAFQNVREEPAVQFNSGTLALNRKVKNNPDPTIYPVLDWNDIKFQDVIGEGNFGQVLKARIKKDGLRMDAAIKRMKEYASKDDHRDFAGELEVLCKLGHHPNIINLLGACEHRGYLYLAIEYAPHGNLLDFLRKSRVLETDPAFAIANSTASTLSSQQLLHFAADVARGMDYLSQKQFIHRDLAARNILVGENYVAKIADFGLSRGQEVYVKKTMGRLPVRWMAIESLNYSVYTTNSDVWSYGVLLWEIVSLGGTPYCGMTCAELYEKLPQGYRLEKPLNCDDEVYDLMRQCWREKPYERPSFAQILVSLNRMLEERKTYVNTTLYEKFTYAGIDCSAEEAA

The term IC50 denotes the concentration that inhibits the measured activity by half. As usually defined, the Kd is a measure of binding affinity in units of concentration. A low value points to a tighter complex. Consider `CC(C)Cn1c2ccc(Nc3ncccn3)cc2c2c3c(c4c(c21)CCc1nn(C)cc1-4)C(=O)NC3` [ESK981, 13-isobutyl-4-methyl-10-(pyrimidin-2-ylamino)-1,2,4,7,8,13-hexahydro-6H-indazolo[5,4-a]pyrrolo[3,4-c]carbazol-6-one], for which, in [1], the “efficacy compared with crizotinib and cabozantinib” value was “most efficacious compound”. The IC50 in [1] (Mus musculus, read-out: growth inhibitory IC50) is 0.035 µM. In assay [2], the “inhibitory effect on 3D spheroids” value is listed as “more robust inhibitory effect at relatively lower concentrations than cabozantinib”. In [3], the invasion entry is given as “inhibited invasion in a dose-dependent manner”. The “lipidated Atg8” value in assay [4] is “increase in lipidated Atg8”. The “time to vacuole formation” value in assay [5] is reported as “only observed after four hours of treatment”. Besides, the “time to LC3 puncta formation” value in assay [5] (300 nM) is not above 1 h. Besides, in [6], the “lysosome quantity (LysoTracker Green)” value is given as “Increased ESK981 lysosome quantity was observed in a dose-dependent manner”. For the same compound, the autophagic flux result in [7] is “inhibited”. Further, the figures for the Kd in [8], in [9] and in assay [10] were more than 10 µM, 0.23 µM and 0.21 µM, respectively. The activity against kinase entry in [11] is on record as “potent activity”. In addition, the “cellular target engagement on PIKfyve” value in assay [12] was “confirmed”.
